Reference: publication PMC5884906, “Single Administration of HBK-15—a Triple 5-HT1A, 5-HT7, and 5-HT3 Receptor Antagonist—Reverses Depressive-Like Behaviors in Mouse Model of Depression Induced by Corticosterone” (Molecular Neurobiology, 2017)
Marks after values point to notes of the source that are not given here.

Columns and labels:
[1] = test system: BDNF level in the hippocampus; assay: BDNF level in the hippocampus (ELISA), single administration; type: in vivo, mice; settings: single 1 mg/kg i.p., corticosterone-treated mice
Method: (§1) Mice were injected with corticosterone (s.c., 20 mg/kg) at random times during the light phase for consecutive 21 days (Fig. 1c). The dose and route of administration of corticosterone were based on studies performed by Zhao and colleagues. After the end of the procedure, next day 30 min before the test, corticosterone-treated mice were given (i.p.) saline, HBK-15 (1.25 mg/kg), fluoxetine (10 mg/kg), or ketamine (1 mg/kg) (Fig. 1c). Control mice received (i.p.) saline. The experimental groups consisted of eight randomly selected animals. We chose the dose of HBK-15 that was active in the chronic experiments (i.e., 1.25 mg/kg). The dose of ketamine was based on the studies performed by Pazini and colleagues. Animals were tested in the forced swim test and spontaneous locomotor activity test. After behavioral testing, mice were scarified and their hippocampi collected for biochemical analysis.
After the behavioral assessments, mice were sacrificed, and their brains were rapidly removed and chilled in an ice-cold saline solution. The hippocampi were dissected on a cold plate, frozen, and stored at −80 °C until assay. On the day of experiments, tissues were thawed on ice and homogenized (1:9 w/v) in phosphate-buffered saline (4 °C) and protease inhibitor cocktail was added. The 10% homogenates were prepared and homogenized for 30 s with TissueRuptor homogenizer. The homogenized tissues were centrifuged (2500×g at 4 °C for 20 min), and the supernatants were collected for further assays.
Protein concentrations of BDNF and NGF in homogenates from hippocampi were determined using the enzyme-linked immunosorbent assay (ELISA) kits (BDNF: DZE201020014, SunRed Biotechnology Company; NGF: MBS825100, MyBioSource) according to the manufacturer’s instructions. […] The samples were analyzed in duplicates, and the mean concentrations were calculated. […] The intensity of the color was read at 450 nm. Absorbance was measured in a multifunction plate reader (POLARstar Omega, BMG Labtech, Germany). […]

[2] = test system: corticosterone-treated mice; assay: forced swim test, single administration, corticosterone model; type: in vivo; settings: single 1 mg/kg i.p., 30 min before the test
Method: as §1
Forced swim test was performed according to the method described by Porsolt and colleagues and previously described. Mice were placed individually for 6 min in glass cylinders (height 25 cm, diameter 10 cm) containing […] (23–25 °C). The total time of immobility was recorded during the final 4 min of the test. The experiments were recorded and scored using aLab.io software by a trained observer blind to the treatments.

[3] = test system: corticosterone-treated mice; assay: spontaneous locomotor activity, single administration; type: in vivo; settings: single 1 mg/kg i.p. in corticosterone-treated mice; 4 min
Method: as §1, with “After the end of the procedure, next day 30 min before the test, corticosterone-treated mice were given (i.p.) saline, HBK-15 (1.25 mg/kg), fluoxetine (10 mg/kg), or ketamine (1 mg/kg) (Fig. 1c).” left out
The locomotor activity was performed as previously described. Locomotor activity was recorded individually for each mouse using activity cages made of clear Perspex (40 cm × 40 cm × 31 cm, Activity Cage 7441, Ugo Basile, Italy). The cages were supplied with I.R. horizontal beam emitters connected to a counter for the recording of light-beam interruptions. Each mouse was placed in a cage for a 30-min habituation period. After that time, the number of crossings of photobeams was measured for 6 min (chronic studies) or for 4 min (acute experiments; i.e., the time equal to the observation period in the forced swim test). The cages were disinfected with 70% ethanol after each mouse.

[4] = target: T1, 5-HT3 receptors expressed in guinea pig ileum (Cavia porcellus, UniProt O70212); set-up: method as in PMID 25847619; settings: functional affinity; cited from earlier work
T1 construct: A segment (15 cm) of male guinea pig ileum was excised from the small intestine; from tissue; host or cells: isolated male guinea pig ileum segments in an organ bath
T1 sequence (O70212 20-490): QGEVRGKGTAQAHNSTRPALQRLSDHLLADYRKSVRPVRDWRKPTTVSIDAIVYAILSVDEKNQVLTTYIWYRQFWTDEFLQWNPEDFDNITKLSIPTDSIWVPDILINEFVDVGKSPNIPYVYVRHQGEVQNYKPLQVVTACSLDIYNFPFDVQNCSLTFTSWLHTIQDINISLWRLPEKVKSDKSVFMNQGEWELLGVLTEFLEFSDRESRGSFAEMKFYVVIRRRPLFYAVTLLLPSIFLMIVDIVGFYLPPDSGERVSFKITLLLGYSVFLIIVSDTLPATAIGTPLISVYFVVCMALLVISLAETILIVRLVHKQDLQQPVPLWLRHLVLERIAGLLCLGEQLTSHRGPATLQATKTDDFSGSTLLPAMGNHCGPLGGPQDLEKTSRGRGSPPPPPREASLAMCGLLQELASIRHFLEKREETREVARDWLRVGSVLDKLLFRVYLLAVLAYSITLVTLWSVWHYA

| SMILES | increase in BDNF level in the hippocampus compared with controls [1] [%] | effect on corticosterone-induced increase in immobility [2] | Number of crossings ± S.E.M [3] | 5-HT3 receptor pK B ± S.E.M [4] |
| --- | --- | --- | --- | --- |
| CNC1(c2ccccc2Cl)CCCCC1=O (stereo not shown) [ketamine] | 33 | reversed an increase in immobility | 248.7 ± 25.3 |  |
| Cc1nccn1CC1CCc2c(c3ccccc3n2C)C1=O (stereo not shown) [Ondansetron] |  |  |  | 7.111 ± 0.12^a |
